Each block holds one compound with its values, some of them ahead of it.
What was measured:
[1] = biological target: T1, human D1R (Homo sapiens, UniProt P21728); experiment: potentiator-mode cAMP assay (HTRF) in SK-N-MC neuroblastoma cells endogenously expressing human D1R; format: cell-based; details: for Emax: SK-N-MC, read-out: % maximum increase (efficacy over DA EC70); for EC50: potency of the compound at the DA EC70 concentration
T1 construct: endogenously expressed human D1R in the SK-N-MC cell line (ATCC); host or cells: SK-N-MC human neuroblastoma cells
Experimental: An in-house chemical library of 250 compounds was screened using an in vitro assay measuring accumulation of cAMP in a human neuroblastoma SK-N-MC cell line stably expressing physiological levels of the D1R but not the D5R.[41] To assess allosteric modulation of the D1R, cells were treated with a fixed concentration of the test compounds (10 μM) for 15 min and then co-incubated with increasing concentrations of the endogenous agonist DA. The cAMP concentration was quantified by homogeneous time-resolved fluorescence energy transfer (HTRF) and the effect of each compound on the DA concentration–response curve was measured.
The PAM efficacy was measured as the percentage of increase over DA EC70 and the potency as the EC50 observed in the concentration–response curve.
Functional studies at human D1 and D2 receptors were carried out in endogenously expressed human D1R in the SK-N-MC cell line (ATCC), and recombinant human D2R stably transfected in an in-house CHO cell line. Cells were thawed and seeded into a black 96-well plate (1 × 10^4 cells/well for SK-N-MC cell line, 5 × 10^3 cells/well for CHO cell line) in Opti-MEM containing 500 μM IBMX (3-isobutyl-1-methylxanthine).

[2] = biological target: T1, human D1R; experiment: potentiator-mode cAMP assay (HTRF) in SK-N-MC neuroblastoma cells endogenously expressing human D1R; format: cell-based; details: no DA
[3] = tested on: reserpinized C57BL/6 mice; experiment: locomotor activity in reserpinized mice; format: in vivo, mouse; details: reserpine 2.5 mg/kg sc; 26 30 mg/kg po; L-DOPA 100 or 400 mg/kg ip
Experimental: The study was carried out in male C57BL/6 wild-type (22–25 g) mice that were acclimatized for 5 days. Animals were randomized based on body weight into six groups (G1 to G6), ten animals per group (n = 10), being group G1 the naïve control group. Animals were fed with standard diet ad libitum. Animals were dosed with subcutaneous administration of reserpine (2.5 mg/kg in DMSO/saline) and after 20 h they were treated with a vehicle (10 mL/kg, po), compound 26 (30 mg/kg, po), L-DOPA (100 or 400 mg/kg, ip) + carbidopa (100 mg/kg, ip) and/or their combination, as indicated in Figure 7. The vehicle employed for compound 26 administration was 5% NMP + 5% solutol HS-15 + 90% normal saline. L-DOPA and carbidopa were administered 30 min prior to start of locomotor activity recording. Compound 26 was administered and 15 min later, mice were placed in the locomotor activity cage to measure the locomotor activity for 60 min (total distance travelled) using ALL Maze version 0.5 automated software enabled with video tracking system. After the activity sessions, raw data were reduced using ALL Maze 5.0 software and Microsoft Excel. Statistical analysis was done with GraphPad Prism-5 using one way ANOVA followed by Dunnett’s test/Tukey’s post hoc test and/or two-way ANOVA followed by Bonferroni post hoc test. Data were considered statistically significant, if P value was less than 0.05.

[4] = concentration–response curve of the compound over DA EC70

T1 sequence (P21728 whole entry): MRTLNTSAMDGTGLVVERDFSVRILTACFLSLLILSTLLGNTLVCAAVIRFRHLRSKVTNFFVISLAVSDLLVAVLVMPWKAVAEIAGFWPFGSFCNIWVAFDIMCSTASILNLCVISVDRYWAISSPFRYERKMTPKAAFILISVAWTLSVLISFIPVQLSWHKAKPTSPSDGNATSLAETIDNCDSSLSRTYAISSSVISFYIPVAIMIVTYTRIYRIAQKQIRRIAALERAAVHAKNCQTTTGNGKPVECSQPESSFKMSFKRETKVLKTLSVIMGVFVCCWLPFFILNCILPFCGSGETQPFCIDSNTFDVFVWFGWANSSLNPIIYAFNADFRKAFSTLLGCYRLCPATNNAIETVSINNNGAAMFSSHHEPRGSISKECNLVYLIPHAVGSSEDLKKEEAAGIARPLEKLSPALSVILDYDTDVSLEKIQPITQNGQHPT

Structure (SMILES): C[S+]([O-])c1ccc(-c2ccccc2OCF)cc1 (stereo not shown) [Compound 23]
Emax [1, 4]: 73 ± 6% | EC50 [1]: 21.7 ± 5.8 µM

Structure (SMILES): O=Cc1ccc(-c2ccccc2OC(F)F)cc1 [Compound 7]
Emax [1, 4]: 62% | % maximum increase (efficacy over DA EC70) [1, 4]: 62 ± 10% | EC50 [1]: 18.5 ± 2.7 µM

Structure (SMILES): O=Cc1ccc(-c2ccc(OC(F)F)cc2)cc1 [Compound 5]
Emax [1, 4]: 37 ± 5% | EC50 [1]: 2.3 ± 0.4 µM

Structure (SMILES): O=Cc1ccc(-c2cccc(OC(F)F)c2)cc1 [Compound 6]
Emax [1, 4]: 35 ± 7% | EC50 [1]: 10.8 ± 1.6 µM

Structure (SMILES): O=Cc1ccc(-c2ccccc2SC(F)F)cc1 [Compound 10, 2′-[(Difluoromethyl)sulfanyl][1,1′-biphenyl]-4-carbaldehyde]
Emax [1, 4]: 101 ± 10% | EC50 [1]: 21.8 ± 3.6 µM | melting point: 46 to 47 °C

Structure (SMILES): CN=S(C)(=O)c1ccc(-c2ccccc2OCF)cc1 (stereo not shown) [Compound 27]
Emax [1, 4]: 33 ± 3% | EC50 [1]: 15.9 ± 2.7 µM

Structure (SMILES): N[C@@H](Cc1ccc(O)c(O)c1)C(=O)O [L-DOPA, reference compound]
recovery of decreased locomotor activity, substance alone [3]: small recovery of decreased locomotor activity

Structure (SMILES): CCS(=N)(=O)c1ccc(-c2ccccc2OCF)cc1 (stereo not shown) [Compound 25]
Emax [1, 4]: 50 ± 7% | EC50 [1]: 30.2 ± 2.4 µM

The remaining lines, values ahead:

Emax [1, 4]: 28 ± 8% | EC50 [1]: 1.26 ± 0.7 µM
Structure (SMILES): CNS(=O)(=O)c1ccc(-c2ccccc2OCF)cc1 [Compound 19]

cAMP response in the absence of DA (agonist activity) [2]: no agonist activity
Structure (SMILES): C[S@@](=N)(=O)c1ccc(-c2ccccc2OCF)cc1 [Compound (R)-26, (R)-2-(Fluoromethoxy)-4′-(S-methanesulfonimidoyl)-1,1′-biphenyl]

cAMP response in the absence of DA (agonist activity) [2]: no agonist activity
Structure (SMILES): C[S@](=N)(=O)c1ccc(-c2ccccc2OCF)cc1 [(S)-26, (S)-2-(Fluoromethoxy)-4′-(S-methanesulfonimidoyl)-1,1′-biphenyl]

Emax [1, 4]: 42 ± 7% | EC50 [1]: 4.93 ± 1.2 µM
Structure (SMILES): NS(=O)(=O)c1ccc(-c2ccccc2OCF)cc1 [Compound 18]

Emax [1, 4]: 30 ± 8% | EC50 [1]: 13.1 ± 2.8 µM
Structure (SMILES): CS(=O)(=O)c1ccc(-c2ccccc2OCF)cc1 [Compound 20]

Reference: article PMC9511493, “2-(Fluoromethoxy)-4′-(S-methanesulfonimidoyl)-1,1′-biphenyl (UCM-1306), an Orally Bioavailable Positive Allosteric Modulator of the Human Dopamine D1 Receptor for Parkinson’s Disease” (Journal of Medicinal Chemistry, 2022)
